The assay concerns the target T1, 14-3-3σ (Homo sapiens, UniProt P31947).
T1 construct: gene SFN; with ERα phospho-peptide (588AEGFPApTV595 in the crystal)
T1 sequence (P31947 1-248): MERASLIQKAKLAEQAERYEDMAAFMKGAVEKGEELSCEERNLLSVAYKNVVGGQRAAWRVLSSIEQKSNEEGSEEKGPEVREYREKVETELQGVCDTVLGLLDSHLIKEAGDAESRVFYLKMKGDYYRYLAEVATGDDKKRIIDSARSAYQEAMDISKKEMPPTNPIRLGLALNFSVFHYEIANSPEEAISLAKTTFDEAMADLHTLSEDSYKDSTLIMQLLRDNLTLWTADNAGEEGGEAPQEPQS
The assay can be described thus: crystal structure with ERα phospho-peptide and […]; FP dose-response and ITC stabilisation. Format: binding.

Broadly, the EC50 is the concentration at which the effect is half-maximal. Low values mean higher potency in that assay, high ones lower potency in that assay. `C=CC(C)(C)OC[C@H]1O[C@H](O[C@@H]2C3=C([C@H](C)COC(C)=O)C[C@H](O)[C@]3(C)/C=C3/[C@@H](COC)CC[C@H]3[C@@H](C)[C@H]2O)[C@H](O)[C@@H](OC(C)=O)[C@@H]1O` [compound 1, fusicoccin A]: it took 880 nM to reach a half-maximal effect (EC50).

Source of the values: article PMC8513901, “Cooperative stabilisation of 14-3-3σ protein–protein interactions via covalent protein modification” (Chemical Science, 2021).
